Target: T1, human FXR alpha ligand binding domain (Homo sapiens, UniProt Q96RI1)
T1 construct: made in house; host or cells: E. coli BL21 (DE3), vector pDEST15
T1 sequence (Q96RI1 187-472 isoform Q96RI1-2): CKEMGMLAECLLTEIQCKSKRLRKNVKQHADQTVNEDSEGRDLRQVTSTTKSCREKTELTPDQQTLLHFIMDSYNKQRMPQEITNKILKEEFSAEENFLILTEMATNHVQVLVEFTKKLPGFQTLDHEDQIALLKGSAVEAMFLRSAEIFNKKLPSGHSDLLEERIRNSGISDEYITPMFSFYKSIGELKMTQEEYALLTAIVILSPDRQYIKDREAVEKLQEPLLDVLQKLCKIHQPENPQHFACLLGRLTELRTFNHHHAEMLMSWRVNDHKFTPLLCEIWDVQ
Assay: FRET Activity Assay (ligand mediated cofactor peptide interaction)
Assay type: biochemical
Details: LANCE time-resolved FRET; GST-FXR-LBD with biotinylated SRC-1 peptide (676-700); read-out: agonistic potential EC50
Procedure: Assays FRET Activity Assay Determination of a ligand mediated cofactor peptide interaction to quantify ligand binding to the nuclear receptor FXR was performed as follows: Preparation of human FXR alpha ligand binding domain: The human FXRalpha LBD was expressed in E. coli strain BL21 (DE3) as an N-terminally GST tagged fusion protein. The DNA encoding the FXR ligand binding domain was cloned into vector pDEST15 (Invitrogen). Expression was under control of an IPTG inducible T7 promoter. The amino acid boundaries of the ligand binding domain were amino acids 187-472 of Database entry NM_005123 (RefSeq). Expression and purification of the FXR-LBD: An overnight preculture of a transformed E. coli strain was diluted 1:20 in LB-Ampicillin medium and grown at 30° C. to an optical density of OD600=0.4-0.6. Gene expression was then induced by addition of 0.5 mM IPTG. […] The protein was analysed by SDS-Page.
The method measures the ability of putative ligands to modulate the interaction between the purified bacterial expressed FXR ligand binding domain (LBD) and a synthetic biotinylated peptide based on residues 676-700 of SRC-1 (LCD2, 676-700). […] The ligand binding domain (LBD) of FXR was expressed as fusion protein with GST in BL-21 cells using the vector pDEST15. […] The LANCE signal was detected by a Perkin Elmer VICTOR2VTM Multilabel Counter. […]

Compound: CC(C)n1nc(C(=O)O)cc1N1CCC(O)(c2ccc(OCc3c(-c4c(Cl)cccc4Cl)noc3C3CC3)cc2Cl)CC1 [Example 1, 5-(4-(2-Chloro-4-((5-cyclopropyl-3-(2,6-dichlorophenyl)isoxazol-4-yl)methoxy)phenyl)-4-hydroxypiperidin-1-yl)-1-isopropyl-1H-pyrazole-3-carboxylic Acid]
- EC50: < 25 nM
